Calls of active or inactive are those of the source. No cut-off for these calls is given here.
Legend:
[1] = target: T1, 5-hydroxytryptamine receptor 2C (Homo sapiens, UniProt P28335); assay: (§1) Agonist activity at recombinant human unedited 5HT2C receptor isoform INI expressed in Flp-In-293 cells assessed as increase in calcium influx measured for 300 secs by Fluo-4 dye based FLIPR assay; assay type: functional, cell-based
T1 sequence (P28335 whole entry): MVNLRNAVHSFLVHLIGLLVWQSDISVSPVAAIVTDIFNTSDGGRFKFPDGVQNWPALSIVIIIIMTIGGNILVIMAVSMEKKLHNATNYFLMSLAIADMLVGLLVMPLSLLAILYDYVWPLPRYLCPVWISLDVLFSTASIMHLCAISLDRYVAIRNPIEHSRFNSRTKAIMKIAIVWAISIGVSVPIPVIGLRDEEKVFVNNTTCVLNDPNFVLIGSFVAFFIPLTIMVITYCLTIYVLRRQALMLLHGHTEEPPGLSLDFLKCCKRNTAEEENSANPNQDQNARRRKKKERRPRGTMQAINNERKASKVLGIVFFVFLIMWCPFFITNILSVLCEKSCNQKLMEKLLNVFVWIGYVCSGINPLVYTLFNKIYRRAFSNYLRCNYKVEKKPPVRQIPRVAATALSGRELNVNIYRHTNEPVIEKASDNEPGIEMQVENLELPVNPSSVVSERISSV

[2] = target: T2, 5-hydroxytryptamine receptor 2C (Homo sapiens) (UniProt P28335); assay: Agonist activity at recombinant human unedited 5HT2C receptor isoform INI expressed in Flp-In-293 cells assessed as increase in calcium influx measured for 300 secs by Fluo-4 dye based FLIPR assay relative to control; assay type: functional, cell-based
T2 sequence (whole entry): T1 sequence (P28335 whole entry)

[3] = target: T3, 5-hydroxytryptamine receptor 2B (Homo sapiens, UniProt P41595); assay: Agonist activity at recombinant human 5HT2B receptor expressed in Flp-In-293 cells assessed as increase in calcium influx up to 10 uM measured for 300 secs by Fluo-4 dye based FLIPR assay; assay type: cell-based; conditions: flp-in-293, 5 min
T3 sequence (P41595 whole entry): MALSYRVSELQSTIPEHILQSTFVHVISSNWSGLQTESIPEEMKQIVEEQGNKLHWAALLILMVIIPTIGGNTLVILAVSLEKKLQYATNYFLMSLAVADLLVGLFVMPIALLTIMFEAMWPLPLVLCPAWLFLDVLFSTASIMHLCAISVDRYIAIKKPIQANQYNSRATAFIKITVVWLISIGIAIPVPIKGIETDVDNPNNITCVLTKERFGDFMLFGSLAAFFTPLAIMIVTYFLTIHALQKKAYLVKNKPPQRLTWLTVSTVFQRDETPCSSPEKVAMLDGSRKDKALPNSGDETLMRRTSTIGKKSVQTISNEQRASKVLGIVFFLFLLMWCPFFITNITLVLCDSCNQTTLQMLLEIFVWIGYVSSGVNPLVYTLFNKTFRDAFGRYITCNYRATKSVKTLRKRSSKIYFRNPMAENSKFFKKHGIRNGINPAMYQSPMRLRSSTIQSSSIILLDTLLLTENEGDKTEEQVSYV

[4] = target: T4, 5-hydroxytryptamine receptor 2A (Homo sapiens, UniProt P28223); assay: Agonist activity at recombinant human 5HT2A receptor expressed in Flp-In-293 cells assessed as increase in calcium influx measured for 300 secs by Fluo-4 dye based FLIPR assay; assay type: cell-based
T4 sequence (P28223 whole entry): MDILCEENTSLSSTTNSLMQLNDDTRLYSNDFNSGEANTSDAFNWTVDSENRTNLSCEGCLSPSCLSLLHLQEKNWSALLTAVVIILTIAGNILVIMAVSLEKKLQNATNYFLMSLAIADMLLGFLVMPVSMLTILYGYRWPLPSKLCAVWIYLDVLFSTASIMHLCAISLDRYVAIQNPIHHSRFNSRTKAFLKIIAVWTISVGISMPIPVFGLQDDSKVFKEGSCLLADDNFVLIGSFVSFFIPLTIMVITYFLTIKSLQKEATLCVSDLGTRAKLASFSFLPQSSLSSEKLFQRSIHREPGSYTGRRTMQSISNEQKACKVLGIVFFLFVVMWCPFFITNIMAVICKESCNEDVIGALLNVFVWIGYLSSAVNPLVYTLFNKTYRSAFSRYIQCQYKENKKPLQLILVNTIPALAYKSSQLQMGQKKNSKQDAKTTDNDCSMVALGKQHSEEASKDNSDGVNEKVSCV

[5] = target: 5-HT2A receptor (Homo sapiens, UniProt P28223); assay: (§2) Agonist activity at recombinant human 5HT2A receptor expressed in Flp-In-293 cells assessed as increase in calcium influx measured for 300 secs by Fluo-4 dye based FLIPR assay relative to control; assay type: cell-based; conditions: Flp-In-293 cells expressing recombinant human 5HT2A receptor
5-HT2A receptor, sequence (P28223 whole entry, canonical isoform): as the sequence (P28223 whole entry) above

[6] = target: Serotonin 2 receptors; 5-HT2a & 5-HT2c (Homo sapiens) (UniProt P28223+P28335); assay: Selectivity ratio of EC50 for recombinant human 5HT2A receptor expressed in Flp-In-293 cells to EC50 for recombinant human unedited 5HT2C receptor isoform INI expressed in Flp-In-293 cells; assay type: cell-based
Serotonin 2 receptors; 5-HT2a & 5-HT2c (Homo sapiens), sequence (P28223 whole entry, looked up, one chain of several, canonical isoform): as the sequence (P28223 whole entry) above

[7] = target: T3, 5-hydroxytryptamine receptor 2B; assay: Agonist activity at recombinant human 5HT2B receptor expressed in Flp-In-293 cells assessed as increase in calcium influx measured for 300 secs by Fluo-4 dye based FLIPR assay; assay type: cell-based
[8] = target: 5-HT2B receptor (Homo sapiens, UniProt P41595); assay: Agonist activity at recombinant human 5HT2B receptor expressed in Flp-In-293 cells assessed as increase in calcium influx measured for 300 secs by Fluo-4 dye based FLIPR assay relative to control; assay type: cell-based; conditions: Flp-In-293 cells expressing recombinant human 5HT2B receptor
5-HT2B receptor, sequence (P41595 whole entry): as the sequence (P41595 whole entry) above

[9] = target: T4, 5-hydroxytryptamine receptor 2A; assay: Agonist activity at recombinant human 5HT2A receptor expressed in Flp-In-293 cells assessed as increase in calcium influx up to 10 uM measured for 300 secs by Fluo-4 dye based FLIPR assay; assay type: cell-based; conditions: flp-in-293, 5 min
[10] = target: T2, 5-hydroxytryptamine receptor 2C (Homo sapiens); assay: as §1; assay type: functional, cell-based
[11] = target: T2, 5-hydroxytryptamine receptor 2C (Homo sapiens); assay: Agonist activity at recombinant human unedited 5HT2C receptor isoform INI expressed in Flp-In-293 cells assessed as increase in calcium influx up to 10 uM measured for 300 secs by Fluo-4 dye based FLIPR assay; assay type: functional, cell-based
[12] = target: T4, 5-hydroxytryptamine receptor 2A; assay: as §2; assay type: cell-based; conditions: flp-in-293, 5 min
[13] = organism: Homo sapiens; assay: Selectivity ratio of EC50 for recombinant human 5HT2B receptor expressed in Flp-In-293 cells to EC50 for recombinant human unedited 5HT2C receptor isoform INI expressed in Flp-In-293 cells; assay type: cell-based

| Compound | EC50 [1] [nM] | Emax [2] [%] | Activity [3] | EC50 [4] [nM] | Emax at 5 min [5] [%] | Ratio EC50 [6] | EC50 ([7]; read-out: EC50) [nM] | Emax at 5 min [8] [%] | Activity [9] | pEC50 [10] | Activity [11] | Emax [12] [%] | EC50 ([7]; read-out: pEC50 (converted)) [nM] | Ratio EC50 [13] |
| --- | --- | --- | --- | --- | --- | --- | --- | --- | --- | --- | --- | --- | --- | --- |
| Cc1cccc([C@@]2(F)C[C@@H]2CN)c1.Cl | 8 | 96 | Not Active | 162 | 71 | 20 | – | – | – | – | – | – | – | – |
| COc1ccccc1CNCC1CC1(F)c1cc(F)ccc1OC (racemic) | 229 | 103 | – | 31 | 92 | – | 285 | 61 | – | – | – | – | – | – |
| Cl.NC[C@@H]1C[C@@]1(F)c1cccc(Cl)c1 | 1060 | 92 | Not Active | – | – | – | – | – | Not Active | – | – | – | – | – |
| COc1ccc(F)cc1C1(F)CC1CN (racemic) | 598 | 90 | – | 352 | 86 | – | 116 | 79 | – | – | – | – | – | – |
| NCC1C(c2ccccc2)C1(F)F (racemic) | 4430 | 82 | – | 3680 | 43 | – | 2350 | 62 | – | – | – | – | – | – |
| NC[C@@H]1C[C@@]1(F)c1ccccc1 | 4110 | 87 | – | 1830 | 47 | – | 903 | 77 | – | – | – | – | – | – |
| Cl.NC[C@@H]1C[C@@]1(F)c1cccc(F)c1 | – | – | Not Active | – | – | – | – | – | Not Active | inactive | inactive | – | – | – |
| Cl.NC[C@@H]1C[C@@]1(F)c1ccccc1Br | – | – | Not Active | – | – | – | – | – | Not Active | inactive | inactive | – | – | – |
| NCCc1c[nH]c2ccc(O)cc12 [SEROTONIN] | – | – | – | – | – | – | – | – | – | – | – | 100 | – | – |
| CNC[C@H]1C[C@]1(F)c1ccccc1 | 291 | 96 | – | 156 | 40 | – | 565 | 42 | – | – | – | – | – | – |
| Cl.NC[C@H]1C[C@]1(F)c1ccccc1Br | 312 | 71 | Not Active | 122 | 38 | – | – | – | – | – | – | – | – | – |
| Cc1cccc([C@]2(F)C[C@H]2CN)c1.Cl | 5250 | 97 | Not Active | – | – | – | – | – | Not Active | – | – | – | – | – |
| COc1ccccc1CNC[C@H]1C[C@]1(F)c1ccccc1 | 789 | 85 | – | 320 | 83 | – | 363 | 27 | – | – | – | – | – | – |
| NC[C@H]1C[C@]1(F)c1cccc(F)c1 | 3 | 107 | – | 3 | 83 | – | 2 | 106 | – | – | – | – | 2.29 | – |
| NC[C@H]1C[C@]1(F)c1cccc(Cl)c1 | 12 | 110 | – | 23 | 102 | – | 22 | 91 | – | – | – | – | – | – |
| NC[C@H]1C[C@]1(F)c1ccccc1 | 4.7 | 98 | – | 10 | 106 | – | 10 | 104 | – | – | – | – | – | 2 |
